# No end group written: not given here. *: point of attachment. Biotin = O=C1N[C@H]2[C@H](CS[C@H]2CCCCC(=O)*)N1
# How the values were obtained:
# recombinant LC3 [1] = conditions: 10 nmoles peptide, 100 ng recombinant LC3
# Method: (SEQ ID NO: 20). Fifteen μl of Dynabeads® MyOne™ Streptavidin T1 (Cat #65601, ThermoFisher) were washed with PBS, then 10 nmoles of biotinylated peptides and 100 ng of recombinant LC3 were added. The mixture was rotated at 4 C over night. The beads were then washed with PBS 3 times and collected for further western analysis.
# recombinant LC3 [2] = conditions: competitive excess of peptide; cell lysate
# Method: In brief, 0.5 μg of His-tagged recombinant LC3 (His-tag, Cat #ADI-APR-100-0200, Enzo Life Sciences) was rotated in 50 μl with 5 μl of His-tagged Dynabeads (Cat #10103D, Thermofisher) in a binding/wash buffer (50 mM Sodium Phosphate, pH 8.0, 150 mM NaCl, 0.01% Tween®-20, 0.5% Triton X-100) at room temperature (RT) for 10 min. Then 150 μl of binding/wash buffer containing 5% BSA was added to the tubes and rotated for 5 minutes. Tubes were placed on a magnet and supernatant discarded. Cell lysate (100 ul, 150 ug) collected in Pull-down Buffer (3.25 mM Sodium phosphate pH 7.4, 70 mM NaCl, 0.01% Tween®-20, 0.5% Triton X-100) was incubated on a roller for 10 min. Supernatant was discarded and beads were washed 4 times with 300 μl Binding/Wash Buffer. His-LC3 was eluted with 150 mM Imidazole, 50 mM Sodium phosphate pH 8.0, 300 mM NaCl, 0.01% Tween®-20 with gentle shaking for 5 min. Supernatants were separated from beads on a magnet. The median intensities of bands for p62, ATP6V1E1 and background were quantified over 3 independent experiments using ImageQuantTL (GE Healthcare).
# Experiments with competitive peptides were performed as above, except 50 μmoles of peptide was added during incubation with cell lysate. […] (SEQ ID NO: 20).
# stress granules (G3BP1+) = test: Stress granules remaining with scFv-LC3 fusion with or without mTOR inhibitor INK128; format: cell-based; conditions: arsenite 1 h, recovery 30 min, G3BP1+ staining
# Method: Nucleic acids encoding the fusion constructs were stably transduced into cells using lentivirus to generate stable expression using the CMV promoter. Cells were cultured in Lonza Ultraculture medium for 24 h and exosomes were harvested by tangential flow filtration concentration and dialysis on a 750 kDa pore size. Exosomes were then incubated with target cells between 2-24 h. After this time point cells were lysed and levels of cytoplasmic TDP-43 were measured by western blot after elimination of nuclei. […] for 30 min and cells were fixed for immunofluorescence to measure the persistence of stress granules using antibodies targeting G3BP1, PABP or DDX3. The number of stress granules were compared to fusions like scFv VH7 with and without LC3. In some experiments cells were pre-treated for 2-24 h with mTOR inhibitors to induce autophagy.
# Experiments were performed to assess whether elimination of anti-TDP-43 VH7 scFv targets by autophagy, triggered by scFv-LC3 fusion constructs, could be further enhanced by treatment with an autophagy-activating agent. In this example, mTOR inhibitor INK128 was used as the autophagy-activating agent.
# Cells were transfected with scFv versus TDP-43 fused to LC3, and treated or not treated with the mTOR inhibitor INK128 to assess autophagy activation. […]
# Atg5^−/− MEF [3] = test: Exosome production (nanoparticle tracking, dynamic light scattering, Western blot), Example 1; format: cell-based, mouse; conditions: Chloroquine 100 μM 16 h, NH4Cl 20 mM 30 min, Concanamycin, siRNA
# Method: Exosomes were enriched by differential centrifugation as previously described (Thery et al., 2006). Briefly, cells were cultured in media containing 10% FBS previously depleted of exosomes by centrifugation at 100 000 g for 16 h (Thery et al., 2006). To purify exosomes, supernatant from cell cultures was centrifuged at 300 g (10 min), 2000 g (10 min) and 10,000 g (30 min, SW32 rotor). At each step the supernatant was recovered. After centrifugation at 100 000 g (1 h 10 min, SW32 rotor) the supernatant was removed and the pellet was resuspended. The pellet was washed in PBS by a final centrifugation at 100 000 g (20 min, TLA100.3 rotor). The exosome-enriched pellet was re-suspended in PBS for further analyses.
# Preparations of enriched exosomes were analyzed using either a Nanosight (FIG. 1A,C) or a ParticleMetrix Zetaview Nanoparticle tracking instrument (all other graphs). […]
# The Zeta View Nanoparticle Tracking instrument (ParticleMetrix) is calibrated for experiments following every instrument start-up. […] If the sample falls within the acceptable reading concentration range, video acquisition and analysis was performed using the following parameters. Acquisition Parameters: Sensitivity (85), Shutter speed (40), Frame rate per second (30), Resolution (Highest), Positions measured (11). […]
# The analysis reports containing the particle size (nm) and concentration (particles/ml) were generated automatically. The particles between 45 nm and 105 nm were summed to quantify exosome-sized particles. In experiments in FIG. 5N,O measuring exosome production after treating cells with NH4Cl or Chloroquine for short time periods, background readings from exosome-depleted media alone were subtracted. […]
# Atg5^−/− MEF [4] = test: Exosome production (dynamic light scattering, Western blot), Example 2; format: cell-based, mouse; conditions: BAF or ConA 12 h
# Method: (§1) Exosomes were enriched by differential centrifugation as previously described (Thery et al., 2006). Briefly, MEF or MDA-MB-231 cells were cultured in media containing FBS depleted of exosomes by centrifugation at 100,000 g for 16 h (Thery et al., 2006). To purify exosomes supernatant from cell cultures was centrifuged at 400 g (7 min), 2000 g (10 min) and 10,000 g (30 min, SW32 rotor). At each step the supernatant was recovered. After centrifugation at 100,000 g (1 h 10 min, SW32 rotor) the supernatant was removed and the pellet was resuspended. The pellet was washed in PBS by a final centrifugation at 100,000 g (20 min, TLA100.3 rotor). The exosome-enriched pellet was re-suspended in PBS for further analyses.
# (§2) Preparations of enriched exosomes were analyzed by dynamic light scattering on a Protein Solutions Dynapro Instrument using Dynamics V6 software. Data were acquired every 10 seconds at 4° C. and 10% laser power for at least 200 seconds per sample. The intensity (Cnt/s) and size (nm) were generated automatically by the instrument.
# Preparations of enriched exosomes were analyzed using a Nanosight LM10 instrument with Nanoparticle Tracking Analysis software Version 2.3. Measurement temperature was 22° C. and time setting was 90 seconds. The analysis conditions were set as: Blur 3×3, Detection Threshold 3, Min Track Length 9, and Min Expected Size 30 nm. […]
# V0-ATPase complex = target: T1, V0-ATPase complex (Mus musculus, UniProt P63082); test: Lysotracker staining of cells with V0-ATPase inhibitors; format: cell-based; conditions: MEF; 12 h treatment
# T1 construct: endogenous in cells; MEF inferred)
# T1 sequence (P51863 whole entry): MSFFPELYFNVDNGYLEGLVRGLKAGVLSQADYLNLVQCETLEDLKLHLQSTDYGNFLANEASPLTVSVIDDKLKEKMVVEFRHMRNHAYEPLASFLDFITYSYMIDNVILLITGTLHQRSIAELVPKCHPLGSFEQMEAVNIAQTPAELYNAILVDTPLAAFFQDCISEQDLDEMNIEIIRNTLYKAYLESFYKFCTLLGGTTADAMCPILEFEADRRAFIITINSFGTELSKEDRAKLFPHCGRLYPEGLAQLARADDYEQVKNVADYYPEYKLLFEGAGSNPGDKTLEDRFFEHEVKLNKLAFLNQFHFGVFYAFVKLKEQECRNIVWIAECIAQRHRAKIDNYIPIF
# T1 sequence (Q9Z1G4 whole entry, further chain): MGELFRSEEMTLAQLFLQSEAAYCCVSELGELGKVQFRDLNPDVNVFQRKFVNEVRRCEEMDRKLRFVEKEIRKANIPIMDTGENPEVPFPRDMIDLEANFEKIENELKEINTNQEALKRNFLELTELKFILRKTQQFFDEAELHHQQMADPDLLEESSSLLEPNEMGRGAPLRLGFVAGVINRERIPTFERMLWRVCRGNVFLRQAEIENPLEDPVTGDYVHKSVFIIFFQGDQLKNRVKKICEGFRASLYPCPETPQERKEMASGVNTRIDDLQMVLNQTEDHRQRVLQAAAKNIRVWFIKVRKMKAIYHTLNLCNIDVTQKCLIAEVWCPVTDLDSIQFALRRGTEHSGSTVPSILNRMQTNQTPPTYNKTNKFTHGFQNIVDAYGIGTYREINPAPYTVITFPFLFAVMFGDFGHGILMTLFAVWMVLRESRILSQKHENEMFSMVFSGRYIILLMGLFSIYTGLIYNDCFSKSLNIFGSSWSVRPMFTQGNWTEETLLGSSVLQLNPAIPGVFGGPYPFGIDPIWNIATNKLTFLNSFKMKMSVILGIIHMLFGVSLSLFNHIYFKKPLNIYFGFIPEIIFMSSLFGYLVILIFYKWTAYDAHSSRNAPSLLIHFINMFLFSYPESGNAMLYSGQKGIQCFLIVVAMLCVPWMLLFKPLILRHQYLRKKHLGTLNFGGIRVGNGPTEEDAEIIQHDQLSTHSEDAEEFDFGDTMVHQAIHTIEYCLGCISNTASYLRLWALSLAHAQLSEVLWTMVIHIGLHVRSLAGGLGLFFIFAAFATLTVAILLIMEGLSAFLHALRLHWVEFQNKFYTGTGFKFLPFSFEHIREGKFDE
# T1 sequence (Q91V37 whole entry, further chain): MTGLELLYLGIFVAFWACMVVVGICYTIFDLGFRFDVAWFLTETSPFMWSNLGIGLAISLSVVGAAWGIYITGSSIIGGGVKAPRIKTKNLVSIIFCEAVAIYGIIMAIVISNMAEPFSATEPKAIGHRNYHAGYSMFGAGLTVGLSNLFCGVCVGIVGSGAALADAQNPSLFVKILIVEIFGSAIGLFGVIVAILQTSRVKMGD
# T1 sequence (P63082 whole entry): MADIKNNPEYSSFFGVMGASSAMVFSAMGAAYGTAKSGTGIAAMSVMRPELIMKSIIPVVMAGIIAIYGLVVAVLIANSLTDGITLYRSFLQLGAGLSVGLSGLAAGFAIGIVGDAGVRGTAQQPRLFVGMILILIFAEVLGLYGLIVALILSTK
# Text: If increased MVB acidification in Atg5^−/− cells causes the drop in exosome release, blocking acidification of MVB may promote exosome release.
# exosomes = test: Packaging of LC3 fusion proteins into exosomes (luciferase light, Western blot of exosomes); format: cell-based
# Text: FIG. 28 D and E show Western blots of exosomes transfected with Luciferase or Luciferase-LC3 fusion (D), or dsRed or dsRed-LC3 fusion (E). […] The scFv in this experiment was anti-TDP-43 VH7 antibody scFv. Detection of the fusion was by Western blot with anti-LC3 antibody or antibody vs. HA tag incorporated into the linker region in the fusion. […] In FIG. 29 C, expression of scFv-LC3 construct in cells was achieved using lentivirus. […] In FIG. 29 C, cells were expressing anti-TDP-43 antibody scFv clone Vh7. […] The inventors hypothesized that exosomes may deliver intrabody-LC3 chimeras with high efficiency to tissues like liver, small intestine and kidney (IV), and if injected (for example) into the spinal cord (as ASOs or AAV in patients in neurodegeneration), throughout the spinal cord and the brain. […]
# Nucleic acids encoding the fusion constructs were stably transduced into cells using lentivirus to generate stable expression using the CMV promoter. […] After this time point cells were lysed and levels of cytoplasmic TDP-43 were measured by western blot after elimination of nuclei. […]
# The data are for 3 scFv fused to LC3 derived from anti-TDP-43 VH7, anti-TDP-43 41D1, and anti-Tau 4E4. […] Cells were transduced with scFv-LC3 conjugates, and exosomes were purified from these and analyzed by Western blot. […]
# wild-type MEF = test: Exosome production (dynamic light scattering, Western blot) with pp242; format: cell-based, mouse; conditions: pp242 1 μM
# Method: as §1, §2
compound,measurement,setting,value
Biotin-RCRKQDFPLVKA [putative ATP6V1E1 LIR motif peptide],pulldown of recombinant LC3 by biotinylated peptide,recombinant LC3 [1],bound at background levels
same,competition of ATP6V1E1 pulldown by recombinant LC3,recombinant LC3 [2],did not affect binding
same,competition of p62 pulldown by recombinant LC3,recombinant LC3 [2],did not affect binding
CC(C)n1nc(-c2ccc3oc(N)nc3c2)c2c(N)ncnc21 [INK128],% of stress granules remaining,stress granules (G3BP1+),did not have a measureable effect
Cl.N [NH4Cl],exosome production in Atg5^−/− cells,Atg5^−/− MEF [3],rescued exosome production
biotin-SGGDDDWTHLSS [p62 LIR motif peptide],pulldown of recombinant LC3 by biotinylated peptide,recombinant LC3 [1],pulled down recombinant LC3
same,competition of ATP6V1E1 pulldown by recombinant LC3,recombinant LC3 [2],had no effect
same,competition of p62 pulldown by recombinant LC3,recombinant LC3 [2],competed with endogenous p62 binding
Biotin-RCRKAILPLQKA [control mutated peptide],pulldown of recombinant LC3 by biotinylated peptide,recombinant LC3 [1],bound at background levels
Concanamycin A,exosome production of Atg5^−/− cells,Atg5^−/− MEF [4],restored exosome production
same,staining of cells with Lysotracker,V0-ATPase complex,abrogated staining of cells with Lysotracker
same,exosome production in Atg5^−/− cells,Atg5^−/− MEF [3],rescued exosome production
HJ8.5-LC3a: anti-Tau scFv HJ8.5 fused via linker and HA tag to LC3a (SEQ ID NO: 57),packaging of construct into exosomes,exosomes,packaged into exosomes
CCN(CC)CCCC(C)Nc1ccnc2cc(Cl)ccc12 (centres unmarked) [Chloroquine],exosome production in Atg5^−/− cells,Atg5^−/− MEF [3],rescued exosome production
CO/C1=C\C(C)=C\[C@@H](C)[C@@H](O)[C@@H](C)C/C(C)=C/C=C/[C@H](OC)[C@@H]([C@@H](C)[C@@H](O)[C@H](C)[C@@]2(O)C[C@@H](O)[C@H](C)[C@@H](C(C)C)O2)OC1=O [Bafilomycin A1],exosome production of Atg5^−/− cells,Atg5^−/− MEF [4],restored exosome production
same,staining of cells with Lysotracker,V0-ATPase complex,abrogated staining of cells with Lysotracker
CC(C)n1nc(-c2cc3cc(O)ccc3[nH]2)c2c(N)ncnc21 [pp242],exosome production,wild-type MEF,increased exosome production

# Reference: patent publication US20240299362A1, “EXOSOME PACKAGING AND TARGETED AUTOPHAGY” (University of Ottawa, priority 2017, published 2024)
